# Experimental data reported in patent US7795208B2, “Methods of using deacetylase inhibitors to promote cell differentiation and regeneration” (The Salk Institute for Biological Study, priority 2001, dated 2010).
# Test system: MLC3F-lacZ-nls construct
# Test: β-Galactosidase assay of cells transfected with MLC3F-lacZ-nls
# Format: cell-based, mouse
# Conditions: transfected cells exposed in GM, then DM 48 hours; vs non-treated cells
# Method: FIGS. 4A-C illustrate that embryos exposed to DI display enhanced somitogenesis and increased muscle gene expression. […] Cells were then exposed to TSA (50 nM) in GM and subsequently switched to DM for 48 hours. Cells were stained to detect β-galactosidase activity. FIG. 4B is a picture of E 10.5 embryos derived from MLC1/3F-nLacZ transgenic mice exposed to either TSA or VPA treatment (see Example 1) and stained for 1 hour at 30° C. to detect β-galactosidase activity. […] FIG. 4C is a Western blot of extracts derived from total embryos exposed to either TSA or VPA; MHC is detected.
# Cells transfected with MLC-lacZ-nls were washed twice in PBS, fixed in 4% paraformaldeheyde-PBS for 5 min, washed twice in PBS, and stained for 2-5 hrs with 5 mM potassium ferrycyanide, 5 mM potassium ferrocyanide, 2 mM MgCl2, 1 mg/ml X-gal (5-bromo-4-chloro-3-indolyl-β-D-galactoside).
structure (smiles),measurement,value
"CC(/C=C/C(=O)NO)=C\[C@@H](C)C(=O)c1ccc(N(C)C)cc1 [TSA, trichostatin A]",β-galactosidase-positive nuclei,increased β-galactosidase-positive nuclei
